Source: ChEMBL document CHEMBL1201862, “PubChem BioAssay data set” (2004)
Calls of active or inactive are those of the source.

Columns and labels:
Cytochrome P450 2D6 = Cytochrome P450 2D6 (Homo sapiens, UniProt P10635);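 note: CYP2D6 member of a cytochrome P450 panel assay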
Cytochrome P450 2C9 = Cytochrome P450 2C9 (Homo sapiens, UniProt P11712)
[1] = target: Luciferin 4-monooxygenase (Photinus pyralis, UniProt P08659); experiment: inhibition of purified Photinus pyralis luciferase – biochemical, luminescence, dose response (AID 1891)
Chain of Luciferin 4-monooxygenase (P08659 whole entry): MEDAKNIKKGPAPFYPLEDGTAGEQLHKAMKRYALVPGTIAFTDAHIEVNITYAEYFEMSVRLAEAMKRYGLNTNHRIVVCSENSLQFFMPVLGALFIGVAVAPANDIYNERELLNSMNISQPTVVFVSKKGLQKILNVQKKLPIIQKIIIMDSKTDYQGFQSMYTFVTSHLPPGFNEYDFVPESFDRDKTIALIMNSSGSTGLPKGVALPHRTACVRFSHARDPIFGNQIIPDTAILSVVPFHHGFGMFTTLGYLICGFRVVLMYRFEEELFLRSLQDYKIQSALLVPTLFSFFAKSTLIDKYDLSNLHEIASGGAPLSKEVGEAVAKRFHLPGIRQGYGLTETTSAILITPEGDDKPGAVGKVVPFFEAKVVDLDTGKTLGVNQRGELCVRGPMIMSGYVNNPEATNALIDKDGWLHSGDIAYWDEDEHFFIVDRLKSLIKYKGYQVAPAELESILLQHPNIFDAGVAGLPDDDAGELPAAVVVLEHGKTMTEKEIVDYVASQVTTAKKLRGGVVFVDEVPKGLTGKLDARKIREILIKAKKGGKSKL

[2] = Luminescence Cell-Based Dose Confirmation HTS to Identify Inhibitors of Platelet Dense Granule Release. [Related pubchem assays: 1663 (Primary HTS), 1678 (Summary of Project)]; assay type: functional
[3] = Trypanosoma cruzi growth suppression in host cells – NIH3T3 host cells, beta-gal luminescence, confirmation (AID 2044); assay type: functional, cell-based;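 note: intracellular parasites grown in NIH/3T3 mouse fibroblasts as host cells; luminescent beta-galactosidase reporter signal from transgenic T. cruzi replicating inside host cells; inhibitors lower the luminescence signal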
[4] = NIH3T3 cell viability loss – ATP luminescence, mouse fibroblasts, counter-screen, dose response (AID 2010); assay type: functional, cell-based;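 note: cells exposed to compound for about 90 hours before reading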
[5] = target: T1, Corticotropin-releasing factor receptor 2/Corticotropin-releasing factor-binding protein (Homo sapiens, UniProt P24387+Q13324); experiment: Dose Response confirmation of uHTS hits for small molecule antagonists of the CRF-binding protein and CRF-R2 receptor complex.; assay type: functional; details: read-out: IC50_Mean
T1 sequence (Q13324 whole entry): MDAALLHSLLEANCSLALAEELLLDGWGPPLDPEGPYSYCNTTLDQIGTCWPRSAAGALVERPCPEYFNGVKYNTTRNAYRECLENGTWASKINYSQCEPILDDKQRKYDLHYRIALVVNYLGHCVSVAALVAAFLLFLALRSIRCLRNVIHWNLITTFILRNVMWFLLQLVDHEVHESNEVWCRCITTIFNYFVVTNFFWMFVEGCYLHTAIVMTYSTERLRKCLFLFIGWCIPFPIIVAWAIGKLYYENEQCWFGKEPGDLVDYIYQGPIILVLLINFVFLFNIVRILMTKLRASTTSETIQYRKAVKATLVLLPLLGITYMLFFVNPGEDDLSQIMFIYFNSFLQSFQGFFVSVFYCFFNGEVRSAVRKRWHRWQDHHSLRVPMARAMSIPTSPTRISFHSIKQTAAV
T1 sequence (P24387 whole entry): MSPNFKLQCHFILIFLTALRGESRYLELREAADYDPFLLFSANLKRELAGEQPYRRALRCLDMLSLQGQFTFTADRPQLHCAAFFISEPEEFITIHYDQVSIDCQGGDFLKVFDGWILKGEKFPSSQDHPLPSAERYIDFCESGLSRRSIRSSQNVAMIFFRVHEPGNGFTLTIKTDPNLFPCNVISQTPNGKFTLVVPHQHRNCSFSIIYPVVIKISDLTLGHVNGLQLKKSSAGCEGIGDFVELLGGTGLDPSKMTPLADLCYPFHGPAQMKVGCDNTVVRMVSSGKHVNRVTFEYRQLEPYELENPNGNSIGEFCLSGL

[6] = target: T1, Corticotropin-releasing factor receptor 2/Corticotropin-releasing factor-binding protein; experiment: activators of CRF receptor 2 with binding protein – uHTS hits, confirmation (AID 602473); assay type: functional; details: read-out: EC50_Mean
[7] = viability of uninfected HEp-2 cells – cell-based, HTS, cytotoxicity control for RSV inhibitor project, dose response (AID 2410); assay type: functional; details: human respiratory syncytial virus
[8] = tested on: Streptococcus sp. 'group A'; experiment: Streptococcus pyogenes SK(-)GAS viability under kanamycin – luminescence, BacTiterGlo, confirmation, counter-screen for streptokinase expression inhibitor project, dose response (AID 1900); assay type: functional, organism-based
Streptococcus = experiment: GAS UMAA2166 growth inhibition – luminescence, BacTiterGlo, counter-screen for streptokinase expression inhibitor project, dose response (AID 1915); assay type: functional, organism-based;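 note: potency for reduction of bacterial viability or growth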

Chain of Cytochrome P450 2C9 (P11712 whole entry): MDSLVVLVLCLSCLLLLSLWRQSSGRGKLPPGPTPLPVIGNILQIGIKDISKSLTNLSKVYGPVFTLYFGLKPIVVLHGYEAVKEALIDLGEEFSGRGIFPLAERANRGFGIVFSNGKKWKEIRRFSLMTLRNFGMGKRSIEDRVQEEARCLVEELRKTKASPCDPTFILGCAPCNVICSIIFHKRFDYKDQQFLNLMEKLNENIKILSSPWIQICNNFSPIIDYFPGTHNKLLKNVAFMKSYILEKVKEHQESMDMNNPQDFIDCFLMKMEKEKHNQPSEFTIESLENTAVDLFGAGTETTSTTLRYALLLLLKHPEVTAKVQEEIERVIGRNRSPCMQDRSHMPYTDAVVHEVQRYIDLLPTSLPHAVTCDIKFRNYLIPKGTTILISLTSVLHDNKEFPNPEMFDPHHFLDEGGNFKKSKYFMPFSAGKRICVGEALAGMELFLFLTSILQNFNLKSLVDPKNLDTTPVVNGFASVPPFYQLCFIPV
Chain of Cytochrome P450 2D6 (P10635 whole entry): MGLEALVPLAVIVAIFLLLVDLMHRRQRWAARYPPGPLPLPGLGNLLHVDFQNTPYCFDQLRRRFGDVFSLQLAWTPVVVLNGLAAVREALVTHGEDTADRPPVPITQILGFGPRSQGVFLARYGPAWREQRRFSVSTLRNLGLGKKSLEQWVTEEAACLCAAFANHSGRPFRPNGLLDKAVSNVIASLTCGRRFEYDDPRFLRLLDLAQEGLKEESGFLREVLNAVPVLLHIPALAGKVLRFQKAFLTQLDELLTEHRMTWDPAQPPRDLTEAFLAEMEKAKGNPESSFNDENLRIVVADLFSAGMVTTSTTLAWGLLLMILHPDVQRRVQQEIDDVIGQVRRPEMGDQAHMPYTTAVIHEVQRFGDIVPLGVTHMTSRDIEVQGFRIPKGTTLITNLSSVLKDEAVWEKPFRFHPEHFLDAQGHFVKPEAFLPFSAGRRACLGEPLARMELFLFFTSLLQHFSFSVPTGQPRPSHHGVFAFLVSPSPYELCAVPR

## Cc1cccc(CNc2ccnc(-c3ccoc3)n2)c1
Cytochrome P450 2D6
  AC50: 31.6 µM (inconclusive)

## O=C(c1ccccc1Nc1ccc(SC(F)F)cc1)N1CCCCC1
Cytochrome P450 2D6
  AC50: 1.12 µM (inconclusive)
Cytochrome P450 2C9
  AC50: 2.82 µM (inconclusive)

## CCOc1cc(CNCCN2CCOCC2)ccc1OCc1ccccc1Cl
[1]
  EC50: > 112 µM (not active)
[2]
  EC50: > 112 µM (not active)
[3]
  EC50: 0.125 µM (active)
[4]
  EC50: 21.1 µM (active)

## CN(C)Cc1cc(O)c(O)c(CN(C)C)c1
Cytochrome P450 2C9
  AC50: 7.94 µM (inconclusive)

## NC(=O)c1ccc(C2SCC(=O)N2Cc2ccccc2)cc1 (configuration not stated)
[5]
  IC50: > 47.1 µM (inactive)
[6]
  EC50: > 53 µM (inactive)

## COc1ccc(CNC(=O)C2CC(c3ccc(OC)cc3)=NO2)cc1 (configuration not stated)
Cytochrome P450 2D6
  AC50: 8.91 µM (inconclusive)

## COc1cccc(Cn2c(=O)c(-c3cc(F)cc(F)c3)nc3cnc(OC)nc32)c1
Cytochrome P450 2C9
  AC50: 3.16 µM (inconclusive)

## CN1CCc2c(cc(O)c(O)c2Cl)[C@H](c2cccc(Cl)c2)C1
Cytochrome P450 2D6
  AC50: 31.6 µM (inconclusive)

## S=C(NCc1ccc(Cl)c(Cl)c1)Nc1ccc2c(c1)OCO2
[5]
  IC50: > 47.1 µM (inactive)
[6]
  EC50: > 53 µM (inactive)

## C[C@H](NC[C@H](O)CP(=O)(O)Cc1ccccc1)c1ccc(Cl)c(Cl)c1
Cytochrome P450 2C9
  AC50: 15.8 µM (inconclusive)

## COc1ccc(Nc2nc(-c3cccs3)nc3ccccc23)cc1S(=O)(=O)N1CCOCC1
[7]
  CC50: 17.1 µM (active)
[3]
  EC50: 1.25 µM (active)
[4]
  EC50: 10.1 µM (active)

## O=c1c(-c2ccc(F)cc2)nc2cnc(N3CCNCC3)nc2n1Cc1cccs1
Cytochrome P450 2D6
  AC50: 20 µM (inconclusive)

## O=C1CSC(c2cn(-c3ccccc3)nc2-c2ccc3c(c2)OCCO3)N1CCN1CCOCC1 (configuration not stated)
[1]
  EC50: > 112 µM (not active)
[2]
  EC50: > 112 µM (not active)

## Cc1ccc(CNC(=O)CCNC(=O)Cn2ccc3ccccc3c2=O)cc1
[5]
  IC50: > 47.1 µM (inactive)
[6]
  EC50: > 53 µM (inactive)

## CCCS(=O)(=O)N1CCCC(C(=O)NCCN2CCOCC2)C1 (configuration not stated)
Cytochrome P450 2C9
  AC50: 7.08 µM (inconclusive)

## CCCCCCCC(=O)NNC(=O)c1c(O)c2ccccc2n(CCC)c1=O
[8]
  EC50: 2.67 µM (active)
Streptococcus
  EC50: 4.91 µM (active)

## Cc1ccc(-n2c(S)nnc2CNc2ccc(C)c(Cl)c2)cc1
[7]
  CC50: 27.7 µM (active)

## O=C(NC(c1ccccc1)c1cc(Cl)c2cccnc2c1O)c1cccnc1 (configuration not stated)
[8]
  EC50: 0.64 µM (active)
[3]
  EC50: 0.488 µM (active)
[4]
  EC50: > 60 µM (not active)
Streptococcus
  EC50: 2.15 µM (active)

## OC[C@@H]1O[C@@H](n2cnc3c(N[C@H]4CCC[C@@H]4O)ncnc32)[C@H](O)[C@H]1O
Cytochrome P450 2D6
  AC50: 15.8 µM (inconclusive)

## CCN1C(=O)C(=O)N(Cc2ccc(OC)c(F)c2)C1=O
[5]
  IC50: > 47.1 µM (inactive)
[6]
  EC50: > 53 µM (inactive)

## Cn1nc(-c2ccc(Cl)cc2)cc1NC(=O)Nc1ccccc1
[7]
  CC50: > 50 µM (active)

## CCOCc1cc(CN2CCCC(CNC(=O)c3ccco3)C2)ccc1OC (configuration not stated)
[5]
  IC50: > 47.1 µM (inactive)
[6]
  EC50: > 53 µM (inactive)

## O=C(C(NS(=O)(=O)c1cccs1)c1ccccc1)N1CCN(c2ccccc2)CC1 (configuration not stated)
Cytochrome P450 2D6
  AC50: 25.1 µM (inconclusive)

## CN1CCN(c2ccc([N+](=O)[O-])c(N/N=C3\CN4CCC3CC4)c2)CC1
Cytochrome P450 2C9
  AC50: 0.01 µM (inconclusive)

## COc1ccc2c(c1)/C(=C/c1cc(OC)c(OC)c(OC)c1)C(=O)N2
[5]
  IC50: > 47.1 µM (inactive)
[6]
  EC50: > 53 µM (inactive)

## CCOc1cc(-n2ncc(C#N)c2N)nc(SC)n1
[7]
  CC50: 17.1 µM (active)

## Cn1cc(S(=O)(=O)N2CCc3ccccc32)cc1C(=O)Nc1ccc(Cl)cc1
[1]
  EC50: > 112 µM (not active)
[2]
  EC50: > 112 µM (not active)

## COC1(C[S+]([O-])c2ccccc2)CCN(CCc2c[nH]c3ccc(F)cc23)CC1 (configuration not stated)
Cytochrome P450 2D6
  AC50: 15.8 µM (inconclusive)
Cytochrome P450 2C9
  AC50: 25.1 µM (inconclusive)
